One data set deals with CYP1A1. Description: Induction of CYP1A1 enzyme in HepG2 cells, EROD assay. The following applies: human, probe 7-ethoxyresorufin (8 μM). The format is cell-based, human. The protocol:
(§1) The formation of resorufin is quantified by fluorometry with a fluorescence plate reader. Fluorescence is determined at λex 570 nm and λem 590 nm. The amount of resorufin is calculated from a standard curve generated using 0 to 1 μM resorufin in water at ½ log dilutions. The remaining (i.e. all cells present at the beginning of analysis, since only supernatant is taken to assay EROD) live cells are subsequently utilized for the MIT cytotoxicity assay. MTT is made up in serum-free medium at 5 mg/ml. then added to the cells giving a final concentration of 10% (0.5 mg/ml MTT final) then incubated for 2 h. The medium is carefully removed, then MTT formazan is solubilized by adding 200 μl of DMSO and subsequently mixed on a plate shaker. The absorbance is measured spectra photometrically at 550 nm and background absorbance at 690 nm is subtracted. A standard curve generated using MIT formazan (dissolved in DMSO) from O—200 μM (0, 2, 5, 10, 20, 50, 100, 200 μM) is used to calculate the final experimental values which are then expressed as (wnol resarufin/mol MTT formazan) or as fold-Induction compared to solvent.

A further data set concerns CYP1A1 enzyme. Described as above. The format is cell-based, human. The conditions noted are these: 10 uM, 24 h. The protocol: as §1
Data set [1] deals with T1, Aryl Hydrocarbon Receptor (Homo sapiens, UniProt P35869).
T1 construct: endogenous in cells; host or cells: Normal human keratinocytes (NHK) transduced with the lentivector plox-XRE TATA-Luc (reporter only)
T1 sequence (P35869 11-848): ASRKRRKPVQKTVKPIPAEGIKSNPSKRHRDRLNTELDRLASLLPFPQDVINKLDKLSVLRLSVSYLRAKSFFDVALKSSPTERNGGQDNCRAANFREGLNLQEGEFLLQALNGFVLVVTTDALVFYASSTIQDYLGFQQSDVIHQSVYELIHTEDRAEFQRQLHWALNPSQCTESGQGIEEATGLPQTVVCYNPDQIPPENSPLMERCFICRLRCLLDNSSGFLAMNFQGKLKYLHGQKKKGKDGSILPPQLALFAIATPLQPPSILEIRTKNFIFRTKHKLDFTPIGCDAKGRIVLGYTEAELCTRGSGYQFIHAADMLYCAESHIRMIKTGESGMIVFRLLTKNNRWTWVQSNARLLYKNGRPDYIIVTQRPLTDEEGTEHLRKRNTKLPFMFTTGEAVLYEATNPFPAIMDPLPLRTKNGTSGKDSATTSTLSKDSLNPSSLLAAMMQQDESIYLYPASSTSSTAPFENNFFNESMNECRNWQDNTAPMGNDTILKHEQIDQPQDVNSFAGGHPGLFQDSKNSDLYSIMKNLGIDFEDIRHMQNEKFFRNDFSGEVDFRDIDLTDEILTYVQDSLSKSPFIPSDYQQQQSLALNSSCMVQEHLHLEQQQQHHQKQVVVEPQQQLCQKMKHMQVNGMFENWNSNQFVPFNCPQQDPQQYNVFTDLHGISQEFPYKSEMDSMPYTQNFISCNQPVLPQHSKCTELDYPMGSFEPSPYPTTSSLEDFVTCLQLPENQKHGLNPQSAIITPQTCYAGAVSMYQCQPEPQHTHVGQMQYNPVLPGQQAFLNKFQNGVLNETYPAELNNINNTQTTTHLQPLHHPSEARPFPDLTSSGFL
Description: AhR activation luciferase reporter in Hep G2-plox-XRE TATA-Luc cells. Type of data set: cell-based. The conditions noted are these: treatment for 24 h with 1-10 uM. The method, then: AhR activation is measured in HEP G2 cells (hepatocytes, Hep G2 is a human liver carcinoma cell line) stably transfected with the lentivector plox-XRE TATA-Luc. The Hep G2 cells are cultured in a growing media consisting of DM EM (Glbco)+10% fetal bovine serum+penicillin+streptomycin. At D0, the Hep G2 cells are seeded into 12-well plates in proportions of approximately 30,000 cells/cm^2. After 24 h, the medium is replaced with fresh medium and the cells are transduced with the lentivector plox-XRE TATA-Luc. After 48 h, the cells are subcultured and maintained in culture, and tested for their reactivity to 3-phenyl-1H-benzo[f]chromen-1-one. The tests are carried out using the luciferase reporter assay system kit from Promega. At D0, the cells are seeded at a density of approximately 60% confluence, and then treated, at D1, with the test substance diluted to various concentrations in the appropriate culture medium. At D2, the cells are lysed in CLB buffer, and the lysate is clarified by centrifugation for 5 min at 10 000 g. The luciferase activity is measured in 20 microliters of lysate as recommended by the supplier, using the luminoskan luminometer (Thermo). […] Data is processed and ECso's can be calculated from standard data monitoring software.
(In a reporter assay the amount or activity of a reporter protein is the signal.)

Data set [2] concerns the target T1, Aryl Hydrocarbon Receptor. Description: AhR activation luciferase reporter in NHK-plox-XRE TATA-Luc cells. The following applies: treatment for 24 h with 1-10 uM. The format is cell-based. The method, then:
AhR activation is also measured in human skin cells such as normal human keratinocytes (NHK cells) or A431 epidermoid cells stably transfected with the lentivector plox-XRE TATA-Luc. The NHK cells are cultured in a specific keratinocyte SFM medium (Glbco)+penicillin+streptomycin. At D0, the NHK cells are seeded Into 6-well plates in a proportion of approximately 15,000 cells/cm^2. After 24 h, the medium is replaced with fresh medium and the cells are transduced with the lentivector plox-XRE TATA-Luc. After 48 h, the cells are subcultured and maintained in culture, and tested for their reactivity to 3-phenyl-1H-benzo[f]chromen-1-one. The tests are carried out using the luciferase reporter assay system kit from Promega. At D0, the cells are seeded at a density of approximately 60% confluence, and then treated, at D1, with the test substance diluted to various concentrations in the appropriate culture medium. At D2, the cells are lysed in CLB buffer, and the lysate is clarified by centrifugation for 5 min at 10 000 g. The luciferase activity is measured in 20 microliters of lysate as recommended by the supplier, using the luminoskan luminometer (Thermo). […] Data is processed and ECso's can be calculated from standard data monitoring software.

This note sets out measurements from patent US20180118707A1, “BETA-NAPHTHOISOFLAVONES, COMPOSITIONS CONTAINING, AND USES OF, SAME” (Thesan Pharmaceuticals, Inc., priority 2015, published 2018).

By EC50 is commonly meant the midpoint of the concentration-response curve.

In the case of `O=c1cc(-c2ccccc2)oc2ccc3ccccc3c12` [D, 3-Phenyl-1H-benzo[f]chromen-1-one, reference compound], in the data set with CYP1A1, the EC50 at 24 h amounted to 1 µM. For the same compound, the “% change vs. TCDD EROD (HepG2) at 10 uM” value in the data set on CYP1A1 enzyme came out at 19%. Further, the “induction of the luciferase activity” value in data set [1] is on record as “significant induction”. In addition, in data set [2], the “induction of luciferase activity” value was “significant induction”.
